Experimental data as given in patent US6355619B1, “Peptide tumor cell growth inhibitors” (Board of Regents, The University of Texas System, priority 1996, dated 2002).
Like-named read-outs stand apart in the source and are kept apart here.

What was measured:
[1] = test system: IL-8 receptors on neutrophils; assay: Inhibition of 125I-labeled IL-8 binding to human neutrophils
Procedure: Therefore, in pursuing this aim, the present inventors assayed various other peptide compositions for IL-8 inhibitory activity by screening a library of 400 groups of hexapeptides. In these screening assays, ^125I-labeled interleukin-8 (10^−12 M) was mixed with 100 μM peptide, then added to neutrophils and incubated at 4° C. for 90 min. The bound radioactivity was separated from unbound by centrifugation through a dense cushion of a mixture of paraffin and silicon oils and the ^125I bound to neutrophils was counted in a gamma radiation spectrometer, allowing the results to be expressed as the percent of IL-8 binding which was inhibited.
The use of human subjects for acquisition of neutrophils was approved by the Institutional Review Board for human experimentation. For the preparation of neutrophils, human blood was anticoagulated with heparin for enzyme release studies and with 0.33% sodium citrate for other studies. For chemotactic and enzyme release studies neutrophils were separated by dextran sedimentation and erythrocyte lysis by the method of Boyum (Kohler and Milstein, 1975). For binding studies and cytotoxic studies, the neutrophils were further purified in gradients of Percoll (Pharmacia Fine Chemicals, Piscataway, N.J.) to a purity of 90-93% (Kohler and Milstein, 1975).
Recombinant human IL-8 (72 amino acids; Pepro Tech Inc., Rocky Hill, N.J.) was radioactively labeled with ^125I by the chloramine T method of Hunter and Greenwood (Hunter and Greenwood, 1962). Binding studies were performed according to Besemer et al. (1989), as follows: Neutrophils in phosphate buffered saline pH 7.4 (PBS) containing 0.1% bovine serum albumin (BSA) were incubated with labeled ligand in the presence or absence of the peptide being tested for 90 min at 4° C. to reach equilibrium and then centrifuged at 12,000×g for 3 min in Beckman B microfuge (Beckman Instruments, Fullerton, Calif.), through a cushion consisting of a mixture of paraffin oil Fisher Scientific, Fair Lawn, N.J.) and silicon oil (Serva Co., N.Y., N.Y.). The pellet and supernatant were then counted in a gamma radiation spectrometer. The non-specific binding was estimated to measure the binding in the presence of 100-fold excess of non-labeled ligand. The binding constants were calculated using the computer programs Lundon I and Lundon II.
In these studies, a screening for inhibition was carried out at 100 μM concentration of the peptide being tested, with a 10^−12 M concentration of IL-8. In the first series of studies, twenty peptides were synthesized with the carboxyl-terminal residue of RRWWCX (SEQ ID NO:23) being changed to each of the standard protein amino acids in turn.

Hs 294T melanoma cells = assay: Binding of 125I-IL-8 to Hs 294T melanoma cells; parameters: species or system human
Procedure: (§1) FIG. 12. The specificity of the receptor binding. The melanoma cells, Hs 294T (closed symbols) and RPMI-7951 (open symbols), were incubated with indicated concentrations of radiolabeled MGSA/GROα (circles) or IL-8 (triangles). The non-specific binding was estimated by the binding in the presence of 100 fold excess of unlabeled material. Specific binding which is calculated by subtracting non-specific binding from total binding is shown in this figure.
(§2) Binding studies with melanoma cell lines were performed by the method of Horuk and colleagues (Horuk et al., 1993). Briefly, the cells (1×10^5 cells/well) in 24-well plates were washed two times with Hank's Balanced Salt Solution and incubated with ^125I-labeled MGSA/GROα or IL-8 in the buffer containing 1% bovine serum albumin at 4° C. for 3 hr. The incubation was terminated by vacuum aspiration of the supernatant. The cells were washed three times in binding buffer, solubilized by the addition of 200 μl of 1% SDS, and transferred to vials for counting. The non-specific binding was estimated by measuring the binding in the presence of 100-fold excess of non-labeled ligand. The binding parameters were calculated using the Lundon II computer program (Lundon Software Inc., Chagrin Falls, Ohio).

RPMI-7951 melanoma cells = assay: Binding of 125I-IL-8 to RPMI-7951 melanoma cells
Procedure: as §1, §2

[2] = IL-8 alone, binding inhibition curves, Lundon II

IL-8: Recombinant human IL-8 (72 amino acids; Pepro Tech Inc.), radiolabeled ligand [reference compound]
Bmax of IL-8, one-site model ([1]; 0 μM peptide, binding isotherms, Lundon I): 174.2 ± 14.5 fmole/10^6 cells | Kd ([1]; 0 μM peptide, binding isotherms, Lundon I, read-out: Kd of IL-8, one-site model): 1300 ± 200 pM | Receptor 1 Bmax of IL-8 [1, 2]: 38.8 ± 0.6 fmole/10^6 cells | Receptor 2 Bmax of IL-8 [1, 2]: 68.8 ± 0.7 fmole/10^6 cells | Kd ([1]; IL-8 alone, binding inhibition curves, Lundon II, read-out: Receptor 1 Kd of IL-8): 30 pM | Kd ([1]; IL-8 alone, binding inhibition curves, Lundon II, read-out: Receptor 2 Kd of IL-8): 670 ± 40 pM | specific binding of IL-8 to melanoma cells (Hs 294T melanoma cells): no specific binding | specific binding of IL-8 to melanoma cells (RPMI-7951 melanoma cells): no specific binding
